Experimental data taken from patent publication US20230172923A1, “METHODS OF TREATING CYTOKINE-RELATED ADVERSE EVENTS” (BRISTOL-MYERS SQUIBB COMPANY, priority 2020, published 2023).

Assays:
Format in all cases: cell-based, human
[1] = system: MIP-1β; assay: LPS-stimulated PBMC cytokine production, multiplex cytokine analysis: MIP-1β; settings: PBMC 2×10^6 cells/ml, compound 1 hour, then 1 ng/ml LPS 18 hours
Experimental: (§1) Peripheral blood mononuclear cells (PBMCs) were isolated from the blood of healthy human donors by Ficoll cell separation. […] Supernatant samples were subjected to multiplex cytokine analysis (Luminex IS100 instrument) to quantify secreted levels of IL-6, IL-8, IL1-beta (IL-1β), GM-CSF, MDC, MIP-1alpha (MIP-1α), MIP-1beta (MIP-1β) and TNF-alpha (TNF-α) (see e.g. FIGS. 7A-C). IC50 (half maximal inhibitory concentration) values were calculated to measure the potency of each IMiD compound in inhibiting LPS-stimulated secretion of each cytokine (see Table 25).

[2] = system: GM-CSF; assay: LPS-stimulated PBMC cytokine production, multiplex cytokine analysis: GM-CSF; settings: PBMC 2×10^6 cells/ml, compound 1 hour, then 1 ng/ml LPS 18 hours
Experimental: as §1

[3] = system: IL-8; assay: LPS-stimulated PBMC cytokine production, multiplex cytokine analysis: IL-8; settings: PBMC 2×10^6 cells/ml, compound 1 hour, then 1 ng/ml LPS 18 hours
Experimental: (§2) Peripheral blood mononuclear cells (PBMCs) were isolated from the blood of healthy human donors by Ficoll cell separation. The PBMCs were seeded at a concentration of 2×10^6 cells/ml and treated for 1 hour at 37° C. with various concentrations of IMiD compounds or control DMSO (0.25%), before stimulation with 1 ng/ml LPS for 18 hours at 37° C.
(§3) Supernatant samples were subjected to multiplex cytokine analysis (Luminex IS100 instrument) to quantify secreted levels of IL-6, IL-8, IL1-beta (IL-1β), GM-CSF, MDC, MIP-1alpha (MIP-1α), MIP-1beta (MIP-1β) and TNF-alpha (TNF-α) (see e.g. FIGS. 7A-C).
(§4) IC50 (half maximal inhibitory concentration) values were calculated to measure the potency of each IMiD compound in inhibiting LPS-stimulated secretion of each cytokine (see Table 25).

[4] = system: MDC; assay: LPS-stimulated PBMC cytokine production, multiplex cytokine analysis: MDC; settings: PBMC 2×10^6 cells/ml, compound 1 hour, then 1 ng/ml LPS 18 hours
Experimental: as §1

[5] = system: IL-1β; assay: LPS-stimulated PBMC cytokine production, multiplex cytokine analysis: IL-1β; settings: PBMC 2×10^6 cells/ml, compound 1 hour, then 1 ng/ml LPS 18 hours
Experimental: as §1

[6] = system: TNF-α; assay: LPS-stimulated PBMC cytokine production, multiplex cytokine analysis: TNF-α; settings: PBMC 2×10^6 cells/ml, compound 1 hour, then 1 ng/ml LPS 18 hours
Experimental: as §2, §3, §4

[7] = system: MIP-1α; assay: LPS-stimulated PBMC cytokine production, multiplex cytokine analysis: MIP-1α; settings: PBMC 2×10^6 cells/ml, compound 1 hour, then 1 ng/ml LPS 18 hours
Experimental: as §2, §3, §4

[8] = system: IL-6, IL-8, IL-1β, GM-CSF, MDC, MIP-1α, MIP-1β and TNF-α; assay: LPS-induced secretion of proinflammatory cytokines from PBMCs (whole multiplex panel, result in words); settings: pre-treatment 1 hour, 1 ng/ml LPS 18 hours
Experimental: Peripheral blood mononuclear cells (PBMCs) from healthy volunteers were seeded at a concentration of 2×10^6 cells/ml and treated with the indicated concentrations of IMiD compounds or control DMSO (0.25%) for 1 hour, before stimulation with 1 ng/ml LPS. After 18 hours, proinflammatory cytokine levels in the supernatant were assessed by multiplex cytokine analysis.
as §2, §3

[9] = system: IL-6; assay: LPS-stimulated PBMC cytokine production, multiplex cytokine analysis: IL-6; settings: PBMC 2×10^6 cells/ml, compound 1 hour, then 1 ng/ml LPS 18 hours
Experimental: as §1

| SMILES | IC50 ([1]; Homo sapiens) | IC50 [2] | IC50 ([3]; Homo sapiens) | IC50 [4] | IC50 [5] | IC50 [6] | IC50 [7] | LPS-induced secretion of proinflammatory cytokines from PBMCs (effect in words) [8] | IC50 [9] | IC50 [1] | IC50 [3] | IC50 ([5]; Homo sapiens) | IC50 ([6]; Homo sapiens) | IC50 ([7]; Homo sapiens, PBMC) | IC50 ([9]; Homo sapiens) | IC50 ([2]; Homo sapiens, PBMC) | IC50 ([4]; Homo sapiens, PBMC) | IC50 ([5]; Homo sapiens, PBMC) | IC50 ([6]; Homo sapiens, PBMC) | IC50 ([9]; Homo sapiens, PBMC) |
| --- | --- | --- | --- | --- | --- | --- | --- | --- | --- | --- | --- | --- | --- | --- | --- | --- | --- | --- | --- | --- |
| O=C1CCC(N2Cc3c(OCc4ccc(CN5CCOCC5)cc4)cccc3C2=O)C(=O)N1 (single isomer, unassigned) [Compound A] | > 10 µM | 0.0092 µM | > 10 µM | 0.0026 µM | 0.00085 µM | 0.0018 µM | 0.19 µM | inhibited | 0.01 µM | – | – | – | – | – | – | – | – | – | – | – |
| O=C1CCC(N2Cc3c(OCc4ccc(CN5CCOCC5)cc4)cccc3C2=O)C(=O)N1 (single isomer, unassigned) [Compound B] | – | 0.039 µM | – | 0.012 µM | 0.0062 µM | 0.0095 µM | 0.45 µM | inhibited | 0.083 µM | > 10 µM | > 10 µM | – | – | – | – | – | – | – | – | – |
| Cc1nc2cccc(N)c2c(=O)n1C1CCC(=O)NC1=O (stereo not shown) [Avadomide, 3-(5-amino-2-methyl-4-oxo-3,4-dihydroquinazolin-3-yl)piperidine-2,6-dione] | > 10 µM | – | > 10 µM | – | – | – | – | inhibited | – | – | – | 0.054 µM | 0.034 µM | 0.3 µM | 0.06 µM | – | – | – | – | – |
| O=C1CCC(N2C(=O)c3ccccc3C2=O)C(=O)N1 (stereo not shown) [Thalidomide, 2-(2,6-dioxopiperidin-3-yl)-2,3 dihydro-1H-isoindole-1,3-dione] | > 10 µM | – | > 10 µM | – | – | – | – | minimal to no effect | – | – | – | – | – | > 10 µM | – | > 10 µM | > 10 µM | > 10 µM | > 10 µM | > 10 µM |
